From ChEMBL document CHEMBL2057110, “Investigation of the interaction between amodiaquine and human serum albumin by fluorescence spectroscopy and molecular modeling” (Eur J Med Chem, 2012)

Legend:
Type in all cases: ADME
Conditions in all cases: isolated protein
Albumin [1] = target: T1, Albumin (Homo sapiens, UniProt P02768); test: Binding affinity to human serum albumin assessed as modified Stern-Volmer association constant at pH 7.4 and 310K by spectrofluorimetry
Albumin [2] = target: T1, Albumin; test: Apparent binding affinity to human serum albumin at pH 7.4 and 291K by spectrofluorimetry
Albumin [3] = target: T1, Albumin; test: Apparent binding affinity to human serum albumin at pH 7.4 and 301K by spectrofluorimetry
Albumin [4] = target: T1, Albumin; test: Apparent binding affinity to human serum albumin at pH 7.4 and 310K by spectrofluorimetrysis
Albumin [5] = target: T1, Albumin; test: Binding affinity to human serum albumin assessed as modified Stern-Volmer association constant at pH 7.4 and 291K by spectrofluorimetry in presence of warfarin
Albumin [6] = target: T1, Albumin; test: Binding affinity to human serum albumin assessed as modified Stern-Volmer association constant at pH 7.4 and 291K by spectrofluorimetry in presence of ibuprofen
Albumin [7] = target: T1, Albumin; test: Binding affinity to human serum albumin assessed as Stern-Volmer association constant at pH 7.4 and 291K by spectrofluorimetry
Albumin [8] = target: T1, Albumin; test: Binding affinity to human serum albumin assessed as Stern-Volmer association constant at pH 7.4 and 301K by spectrofluorimetry
Albumin [9] = target: T1, Albumin; test: Binding affinity to human serum albumin assessed as Stern-Volmer association constant at pH 7.4 and 310K by spectrofluorimetry

T1 sequence (P02768 whole entry): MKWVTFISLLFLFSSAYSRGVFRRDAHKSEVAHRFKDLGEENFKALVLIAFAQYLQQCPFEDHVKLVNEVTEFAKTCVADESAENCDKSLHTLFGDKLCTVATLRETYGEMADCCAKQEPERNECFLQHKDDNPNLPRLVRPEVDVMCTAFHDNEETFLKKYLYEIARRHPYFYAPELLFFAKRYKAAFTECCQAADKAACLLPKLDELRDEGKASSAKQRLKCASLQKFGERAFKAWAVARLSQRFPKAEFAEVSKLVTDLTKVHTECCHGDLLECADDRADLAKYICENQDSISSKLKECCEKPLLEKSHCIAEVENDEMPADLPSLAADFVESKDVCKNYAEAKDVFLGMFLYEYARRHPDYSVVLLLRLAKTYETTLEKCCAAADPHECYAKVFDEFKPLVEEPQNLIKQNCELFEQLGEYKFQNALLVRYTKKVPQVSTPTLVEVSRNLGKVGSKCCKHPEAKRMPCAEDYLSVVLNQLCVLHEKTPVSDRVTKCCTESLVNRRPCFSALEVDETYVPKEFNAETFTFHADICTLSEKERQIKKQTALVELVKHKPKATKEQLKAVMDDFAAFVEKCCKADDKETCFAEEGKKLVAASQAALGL

- Ka (Albumin [1]): 45900 M⁻¹
- Kb (Albumin [2]): 35000 M⁻¹
- Kb (Albumin [3]): 48600 M⁻¹
- Kb (Albumin [4]): 67300 M⁻¹
- Ka (Albumin [5]): 73100 M⁻¹
- Ka (Albumin [6]): 114000 M⁻¹
- KSV (Albumin [7]): 76600 M⁻¹
- KSV (Albumin [8]): 56200 M⁻¹
- KSV (Albumin [9]): 48400 M⁻¹
SMILES: CCN(CC)Cc1cc(Nc2ccnc3cc(Cl)ccc23)ccc1O.Cl
